Results published in PubChem BioAssay (NCI).
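Test compounds were applied to cells in 96-well plates for 48 hours at 5 doses. GI50 = concentration required for 50% inhibition of growth. TGI is the concentration that stops growth completely.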

Assays:
Assay in all cases: NCI tumour cell line growth inhibition, 48 h
SK-OV-3 ovarian = test system: SK-OV-3 ovarian
NCI-H23 lung = test system: NCI-H23 lung
SF-268 CNS = test system: SF-268 CNS
COLO 205 colon = test system: COLO 205 colon
UACC-62 melanoma = test system: UACC-62 melanoma
DMS 114 small cell lung = test system: DMS 114 small cell lung
NCI-H522 lung = test system: NCI-H522 lung
XF 498 CNS = test system: XF 498 CNS
UACC-257 melanoma = test system: UACC-257 melanoma
KM20L2 colon = test system: KM20L2 colon
HL-60(TB) leukemia = test system: HL-60(TB) leukemia
HCT-116 colon = test system: HCT-116 colon
SK-MEL-28 melanoma = test system: SK-MEL-28 melanoma
SNB-75 CNS = test system: SNB-75 CNS
RXF 393 renal = test system: RXF 393 renal
UO-31 renal = test system: UO-31 renal
HT29 colon = test system: HT29 colon
HOP-18 NSCLC = test system: HOP-18 NSCLC
SN12K1 renal = test system: SN12K1 renal
HCC-2998 colon = test system: HCC-2998 colon
LOX IMVI melanoma = test system: LOX IMVI melanoma
OVCAR-5 ovarian = test system: OVCAR-5 ovarian
OVCAR-4 ovarian = test system: OVCAR-4 ovarian
M19-MEL melanoma = test system: M19-MEL melanoma
SF-295 CNS = test system: SF-295 CNS
HOP-62 NSCLC = test system: HOP-62 NSCLC
IGROV1 ovarian = test system: IGROV1 ovarian
MALME-3M melanoma = test system: MALME-3M melanoma
DMS 273 small cell lung = test system: DMS 273 small cell lung
DLD-1 colon = test system: DLD-1 colon
MOLT-4 leukemia = test system: MOLT-4 leukemia
SK-MEL-2 melanoma = test system: SK-MEL-2 melanoma
OVCAR-3 ovarian = test system: OVCAR-3 ovarian
NCI/ADR-RES ovarian = test system: NCI/ADR-RES ovarian
P388 leukemia = test system: P388 leukemia
OVCAR-8 ovarian = test system: OVCAR-8 ovarian
HCT-15 colon = test system: HCT-15 colon
RPMI-8226 leukemia = test system: RPMI-8226 leukemia
SNB-78 CNS = test system: SNB-78 CNS
NCI-H460 lung = test system: NCI-H460 lung
NCI-H226 lung = test system: NCI-H226 lung
CCRF-CEM leukemia = test system: CCRF-CEM leukemia
KM12 colon = test system: KM12 colon
SN12C renal = test system: SN12C renal
SK-MEL-5 melanoma = test system: SK-MEL-5 melanoma
A498 renal = test system: A498 renal
SF-539 CNS = test system: SF-539 CNS
U251 CNS = test system: U251 CNS
MCF7 breast = test system: MCF7 breast
SNB-19 CNS = test system: SNB-19 CNS
HOP-92 NSCLC = test system: HOP-92 NSCLC
A549 NSCLC = test system: A549 NSCLC
K-562 leukemia = test system: K-562 leukemia
EKVX NSCLC = test system: EKVX NSCLC
SW-620 colon = test system: SW-620 colon
P388/ADR leukemia = test system: P388/ADR leukemia
CAKI-1 renal = test system: CAKI-1 renal
LXFL 529 NSCLC = test system: LXFL 529 NSCLC
DU-145 prostate = test system: DU-145 prostate
BT-549 breast = test system: BT-549 breast
M14 melanoma = test system: M14 melanoma
MDA-MB-231 breast = test system: MDA-MB-231 breast
786-0 renal = test system: 786-0 renal
RXF-631 renal = test system: RXF-631 renal
PC-3 prostate = test system: PC-3 prostate
SR leukemia = test system: SR leukemia
MDA-MB-435 = test system: MDA-MB-435
MDA-N = test system: MDA-N
ACHN renal = test system: ACHN renal
TK-10 renal = test system: TK-10 renal
HS 578T breast = test system: HS 578T breast
T-47D breast = test system: T-47D breast

Nc1ncnc2nc[nH]c12
TGI (SK-OV-3 ovarian): > 250 µM
TGI (NCI-H23 lung): > 250 µM
GI50 (SF-268 CNS): 143 µM
TGI (SF-268 CNS): > 250 µM
TGI (COLO 205 colon): > 221 µM
TGI (UACC-62 melanoma): > 250 µM
TGI (DMS 114 small cell lung): > 250 µM
TGI (NCI-H522 lung): 220 µM
TGI (XF 498 CNS): 20.8 µM
TGI (UACC-257 melanoma): > 250 µM
TGI (KM20L2 colon): > 250 µM
TGI (HL-60(TB) leukemia): 228 µM
TGI (HCT-116 colon): > 250 µM
TGI (SK-MEL-28 melanoma): > 250 µM
TGI (SNB-75 CNS): > 155 µM
TGI (RXF 393 renal): 88 µM
TGI (UO-31 renal): > 250 µM
TGI (HT29 colon): > 250 µM
TGI (HOP-18 NSCLC): > 250 µM
TGI (SN12K1 renal): > 250 µM
TGI (HCC-2998 colon): > 191 µM
TGI (LOX IMVI melanoma): > 250 µM
TGI (OVCAR-5 ovarian): > 250 µM
TGI (OVCAR-4 ovarian): > 250 µM
TGI (M19-MEL melanoma): > 250 µM
TGI (SF-295 CNS): > 250 µM
TGI (HOP-62 NSCLC): > 250 µM
TGI (IGROV1 ovarian): > 250 µM
GI50 (MALME-3M melanoma): 86 µM
TGI (MALME-3M melanoma): > 232 µM
TGI (DMS 273 small cell lung): > 206 µM
TGI (DLD-1 colon): > 250 µM
GI50 (MOLT-4 leukemia): 15.8 µM
TGI (MOLT-4 leukemia): 159 µM
TGI (SK-MEL-2 melanoma): > 250 µM
GI50 (OVCAR-3 ovarian): 113 µM
TGI (OVCAR-3 ovarian): > 250 µM
TGI (NCI/ADR-RES ovarian): 99.5 µM
TGI (P388 leukemia): > 250 µM
TGI (OVCAR-8 ovarian): > 250 µM
TGI (HCT-15 colon): > 250 µM
TGI (RPMI-8226 leukemia): > 250 µM
TGI (SNB-78 CNS): > 158 µM
GI50 (NCI-H460 lung): 21.3 µM
TGI (NCI-H460 lung): > 250 µM
TGI (NCI-H226 lung): > 250 µM
GI50 (CCRF-CEM leukemia): 32.4 µM
TGI (CCRF-CEM leukemia): > 250 µM
TGI (KM12 colon): > 158 µM
TGI (SN12C renal): > 237 µM
TGI (SK-MEL-5 melanoma): > 250 µM
TGI (A498 renal): 11.1 µM
TGI (SF-539 CNS): > 250 µM
TGI (U251 CNS): > 250 µM
TGI (MCF7 breast): > 162 µM
GI50 (SNB-19 CNS): 105 µM
TGI (SNB-19 CNS): > 146 µM
TGI (HOP-92 NSCLC): > 250 µM
GI50 (A549 NSCLC): 75.6 µM
TGI (A549 NSCLC): > 250 µM
TGI (K-562 leukemia): > 250 µM
TGI (EKVX NSCLC): > 250 µM
TGI (SW-620 colon): > 250 µM
TGI (P388/ADR leukemia): > 250 µM
GI50 (CAKI-1 renal): 58.9 µM
TGI (CAKI-1 renal): > 250 µM

C[C@]12C=CC(=O)C=C1CC[C@@H]1[C@@H]2CC[C@]2(C)OC(=O)CC[C@@H]12
TGI (SK-OV-3 ovarian): > 500 µM
TGI (NCI-H23 lung): 499 µM
TGI (SF-268 CNS): > 500 µM
TGI (COLO 205 colon): > 500 µM
TGI (UACC-62 melanoma): 500 µM
TGI (DMS 114 small cell lung): > 500 µM
TGI (NCI-H522 lung): 457 µM
TGI (XF 498 CNS): 373 µM
TGI (UACC-257 melanoma): > 500 µM
TGI (LXFL 529 NSCLC): > 500 µM
TGI (DU-145 prostate): > 500 µM
TGI (KM20L2 colon): > 470 µM
TGI (HL-60(TB) leukemia): 476 µM
TGI (BT-549 breast): > 500 µM
TGI (HCT-116 colon): > 482 µM
TGI (SK-MEL-28 melanoma): > 500 µM
TGI (SNB-75 CNS): > 487 µM
TGI (RXF 393 renal): > 485 µM
TGI (UO-31 renal): > 500 µM
TGI (HT29 colon): > 500 µM
TGI (HOP-18 NSCLC): 232 µM
TGI (SN12K1 renal): 498 µM
TGI (HCC-2998 colon): > 409 µM
TGI (LOX IMVI melanoma): > 500 µM
TGI (M14 melanoma): > 500 µM
TGI (OVCAR-5 ovarian): > 500 µM
TGI (OVCAR-4 ovarian): > 500 µM
TGI (SF-295 CNS): > 500 µM
TGI (HOP-62 NSCLC): > 471 µM
TGI (IGROV1 ovarian): > 475 µM
TGI (MALME-3M melanoma): > 500 µM
TGI (DMS 273 small cell lung): > 500 µM
TGI (DLD-1 colon): > 500 µM
TGI (MOLT-4 leukemia): > 500 µM
TGI (SK-MEL-2 melanoma): > 488 µM
TGI (OVCAR-3 ovarian): > 500 µM
TGI (MDA-MB-231 breast): > 500 µM
TGI (NCI/ADR-RES ovarian): > 500 µM
TGI (P388 leukemia): > 486 µM
TGI (OVCAR-8 ovarian): 498 µM
TGI (HCT-15 colon): > 500 µM
TGI (RPMI-8226 leukemia): > 500 µM
TGI (786-0 renal): > 500 µM
TGI (SNB-78 CNS): > 500 µM
TGI (NCI-H460 lung): > 500 µM
TGI (RXF-631 renal): > 500 µM
TGI (NCI-H226 lung): > 493 µM
TGI (PC-3 prostate): > 500 µM
TGI (CCRF-CEM leukemia): > 500 µM
TGI (SR leukemia): > 489 µM
TGI (MDA-MB-435): > 500 µM
TGI (KM12 colon): > 500 µM
TGI (MDA-N): > 500 µM
TGI (ACHN renal): > 500 µM
TGI (SN12C renal): > 500 µM
TGI (SK-MEL-5 melanoma): > 477 µM
TGI (A498 renal): 496 µM
TGI (SF-539 CNS): > 476 µM
TGI (U251 CNS): > 500 µM
TGI (MCF7 breast): > 500 µM
TGI (SNB-19 CNS): > 500 µM
TGI (TK-10 renal): > 500 µM
TGI (HOP-92 NSCLC): 500 µM
TGI (A549 NSCLC): 478 µM
TGI (K-562 leukemia): > 500 µM
TGI (HS 578T breast): > 500 µM
TGI (EKVX NSCLC): > 500 µM
TGI (T-47D breast): > 500 µM
TGI (SW-620 colon): > 496 µM
TGI (P388/ADR leukemia): 449 µM
TGI (CAKI-1 renal): > 404 µM
